4 molecules from paper PMC13201543 (Communications Biology, 2026) can be followed below.

“Also recorded” adds a separate entry of the source.

In assay [1] the test system is C*07. In words: Surface plasmon resonance, immobilized C*07. In kind it is binding, human. Conditions: Biacore T200, recombinant C*07. (In SPR one partner is held on a chip, and binding of the other changes the refractive index at the surface.)
Assay [2] deals with A*33. The experiment in a line: Surface plasmon resonance, immobilized A*33. In kind it is binding, human. The note with it: for SPR binding to A*33 (in words): Biacore T200, recombinant A*33.
In assay [3] the test system is A*24. The experiment in a line: Surface plasmon resonance, immobilized A*24. In kind it is binding, human.
Assay [4] concerns the target recombinant C-terminal His-tag HLA-A*33 (human). The experiment in a line: SPR.
For assay [5], the target named is recombinant C-terminal His-tag HLA-A*24 (human). The experiment in a line: SPR.
The target of assay [6] is recombinant His-tag HLA-C*07 (human). In words: SPR.

Take GNNQIDSTLKDLVEELSK [MSP3]: in assay [1], the “binding to C*07 (in words)” value was “strong binding affinity”. In assay [2], the “SPR binding to A*33 (in words)” value was “relatively weaker binding”. In assay [2] (MSP3 100 μM (Fig. 8C.iii)), the “SPR binding response, A*33 compared with C*07” value was “Distinct decrease in SPR binding response”.
Consider SMFWPCLLR [SAG2C], for which the “SPR binding to A*24 (in words)” value in assay [3] (Biacore T200, immobilized A*24, different concentrations of peptide) is reported as “relatively weaker binding”. Moreover, the “SPR binding response, A*24 compared with A*33” value in assay [3] (SAG2C 100 μM (Fig. 6C.iii)) is recorded as “Distinct decrease in SPR binding response”. Further, the “SPR binding to A*33 (in words)” value in assay [2] is “higher binding affinity; also recorded: strong binding”.

B1: Toxoplasma antigenic peptide SAG2C, wild type (peptide)
peptide: SMFWPCLLR
B1: the SPR response at 200 uM stood at 150 RU in assay [4] and 15 RU in assay [5].

B2: Plasmodium antigenic peptide MSP3 (peptide)
peptide: GNNQIDSTLKDLVEELSK
On to B2, for which the SPR response at 200 uM was found to be 60 RU in assay [6] and 12 RU in assay [4].
